Key:
in vivo = conditions: female, SW, mouse, iv
Experimental: Tissue samples were prepared by homogenizing a weighed tissue sample in phosphor-buffered saline (PBS, ×1)+1% DTT (×1)+CH3CN (0.1% HCOOH) (×3)), centrifuged at 10,000 rpm×5 min; 150 μL supernatant+90 μL H2O. 100 μL prepared samples were subjected to HPLC, using 5-95% CH3CN (0.1% HCOOH) as the eluent. The running time was 15 min.

[1] = tested on: Stage IV metastatic melanoma patients; conditions: RECIST, Efficacy Sample
Experimental: Patients were treated until progression of the disease. […] The tumor assessments were performed at baseline, Cycle 2, and every other Cycle thereafter.

SMILES | Kp at 30 min (in vivo) | concentration at 30 min (in vivo) [µM] | CR + PR (95% CI) [1]
CN(NC(=O)CC(=O)NN(C)C(=S)C1CC1)C(=S)C1CC1 [Compound (18)] | ~1.64 | ~51 | –
CC(=O)O[C@H]1C(=O)[C@@]2(C)[C@H]([C@H](OC(=O)c3ccccc3)[C@]3(O)C[C@H](OC(=O)[C@H](O)[C@@H](NC(=O)c4ccccc4)c4ccccc4)C(C)=C1C3(C)C)[C@]1(OC(C)=O)CO[C@@H]1C[C@@H]2O [Paclitaxel] | – | – | 3.7% (0.1%,

— patent US20100068174A1, “COMBINATION WITH BIS (THIOHYDRAZIDE AMIDES) FOR TREATING CANCER” (Synta Pharmaceuticals Corp., priority 2006, published 2010)
